Results from patent US10213429B2, “Imidazo-pyrazinyl derivatives useful as soluble guanylate cyclase activators” (Merck Sharp & Dohme Corp., priority 2015, dated 2019).

Key:
[1] = system: Spontaneously hypertensive rats (SHR); experiment: Acute Efficacy in Spontaneously Hypertensive Rats (SHR), telemetry blood pressure; format: in vivo, rat; conditions: SHR male
Procedure, shortened: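 Male SHR with aortic telemetry, conscious and freely moving, recovered 14 days post-surgery. Single oral gavage; vehicle 10% transcutol/20% Cremophor/70% water dosed the day before as baseline. Hourly blood pressure averages minus baseline; maximum peak systolic decrease reported at a stated oral dose (mpk).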

sGC α1/β1 heterodimer = target: T1, sGC α1/β1 heterodimer (Homo sapiens, UniProt Q02108+Q02153); experiment: Cell-Based sGC Functional Assay (CASA Assay), cGMP by HTRF in CHO-K1/sGC cells; conditions: for Emax: CHO-K1, percent activation relative to maximum cGMP production of Compound A (= 100%), read-out: % Act.; for EC50: cGMP production, 1 hr at 37° C., 4P fit, presence or absence of 1 μM DETA-NO not given, read-out: IP (nM) (inflection point)
T1 construct: expressed in transfected cells; host or cells: CHO-K1 (clone #7, CHO-K1/sGC)
T1 sequence (Q02108 1-690): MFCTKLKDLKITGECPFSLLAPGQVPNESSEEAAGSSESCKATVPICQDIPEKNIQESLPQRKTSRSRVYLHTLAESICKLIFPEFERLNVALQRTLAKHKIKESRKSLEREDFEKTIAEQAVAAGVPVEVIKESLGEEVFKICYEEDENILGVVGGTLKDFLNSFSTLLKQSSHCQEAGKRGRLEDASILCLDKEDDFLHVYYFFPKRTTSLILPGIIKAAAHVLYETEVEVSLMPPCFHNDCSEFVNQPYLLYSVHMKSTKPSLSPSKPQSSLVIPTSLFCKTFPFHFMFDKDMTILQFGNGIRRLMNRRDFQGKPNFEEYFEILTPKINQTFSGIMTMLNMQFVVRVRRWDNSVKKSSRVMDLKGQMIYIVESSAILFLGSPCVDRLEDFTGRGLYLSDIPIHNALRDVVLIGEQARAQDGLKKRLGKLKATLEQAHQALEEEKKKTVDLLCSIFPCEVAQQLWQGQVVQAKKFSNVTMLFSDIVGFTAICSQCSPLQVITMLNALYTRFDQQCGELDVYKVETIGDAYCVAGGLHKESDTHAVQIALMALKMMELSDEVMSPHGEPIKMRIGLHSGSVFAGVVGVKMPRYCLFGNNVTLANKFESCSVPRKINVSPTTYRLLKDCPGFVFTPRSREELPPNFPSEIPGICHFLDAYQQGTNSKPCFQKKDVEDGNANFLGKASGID
T1 sequence (Q02153 1-619): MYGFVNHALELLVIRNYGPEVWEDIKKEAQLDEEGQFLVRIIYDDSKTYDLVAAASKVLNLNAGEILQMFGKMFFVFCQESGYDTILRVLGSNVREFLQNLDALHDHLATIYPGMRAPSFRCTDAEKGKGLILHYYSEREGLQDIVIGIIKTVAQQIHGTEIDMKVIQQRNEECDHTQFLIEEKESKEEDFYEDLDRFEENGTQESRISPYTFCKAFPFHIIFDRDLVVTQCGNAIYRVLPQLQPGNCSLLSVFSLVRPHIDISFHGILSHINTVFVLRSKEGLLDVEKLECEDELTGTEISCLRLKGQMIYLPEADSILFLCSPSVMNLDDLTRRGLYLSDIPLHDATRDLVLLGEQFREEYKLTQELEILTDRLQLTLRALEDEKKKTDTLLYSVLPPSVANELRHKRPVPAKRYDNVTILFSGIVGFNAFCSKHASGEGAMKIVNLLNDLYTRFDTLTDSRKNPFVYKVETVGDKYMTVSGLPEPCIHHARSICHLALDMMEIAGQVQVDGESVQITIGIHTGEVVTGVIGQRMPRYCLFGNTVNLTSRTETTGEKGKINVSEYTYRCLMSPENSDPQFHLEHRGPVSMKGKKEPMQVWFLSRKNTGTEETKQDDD
Procedure, shortened: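 CHO-K1 cells stably expressing human sGC α1/β1, in EBSS buffer with 5 mM MgCl2, 10 mM HEPES, 0.05% BSA and 0.5 mM IBMX, incubated with compound (2.5% DMSO) ± 1 μM DETA-NO, 1 h, 37 °C. Intracellular cGMP read by HTRF; activity as % of reference activator maximum, IP from 4-parameter fit.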

Structure (SMILES)	Cat. (maximum peak decrease of systolic blood pressure (SBP) in SHR) ([1]; single oral dose 3.0 mpk P.O.)	Emax (sGC α1/β1 heterodimer)	EC50 (sGC α1/β1 heterodimer)	Cat. (maximum peak decrease of systolic blood pressure (SBP) in SHR) ([1]; single oral dose 1.0 mpk P.O.)	Cat. (maximum peak decrease of systolic blood pressure (SBP) in SHR) ([1]; single oral dose 2.0 mpk P.O.)	Cat. (maximum peak decrease of systolic blood pressure (SBP) in SHR) ([1]; single oral dose 0.3 mpk P.O.)
O=C1Nc2nc(-c3cn4ccnc4c(CCCC(F)(F)F)n3)ncc2C1(c1ccc(OC(F)(F)F)cc1)C1CC1 (stereo not drawn) [Example 52A, 5-cyclopropyl-2-(8-(4,4,4-trifluorobutyl)imidazo[1,2-a]pyrazin-6-yl)-5-(4-(trifluoromethoxy)phenyl)-5H-pyrrolo[2,3-d]pyrimidin-6(7H)-one]	A (Category A=SBP in SHRs<20 mmHg)	155%	791 nM	–	–	–
O=C1Nc2nc(-c3cn4ccnc4c(CCCC(F)(F)F)n3)ncc2C1(c1ccc(F)cn1)C1CC1 (stereo not drawn) [Example 54A, 5-cyclopropyl-5-(5-fluoropyridin-2-yl)-2-(8-(4,4,4-trifluorobutyl)imidazo[1,2-a]pyrazin-6-yl)-5H-pyrrolo[2,3-d]pyrimidin-6(7H)-one]	–	137%	21 nM	A (Category A=SBP in SHRs<20 mmHg)	–	–
CCCCc1nc(-c2ncc3c(n2)NC(=O)C3(c2ccc(Cl)cn2)C2CC2)cn2ccnc12 (stereo not drawn) [Example 55A, 2-(8-butylimidazo[1,2-a]pyrazin-6-yl)-5-(5-chloropyridin-2-yl)-5-cyclopropyl-5H-pyrrolo[2,3-d]pyrimidin-6(7H)-one]	–	188%	73 nM	–	B (Category B=SBP in SHRs 20-40 mmHg)	–
CC1(c2ccc(Cl)c(F)c2)C(=O)Nc2nc(-c3cn4ccnc4c(CCC(F)(F)F)n3)ncc21 (stereo not drawn) [Example 56B, 5-(4-chloro-3-fluorophenyl)-5-methyl-2-(8-(3,3,3-trifluoropropyl)imidazo[1,2-a]pyrazin-6-yl)-5H-pyrrolo[2,3-d]pyrimidin-6(7H)-one]	–	95%	70 nM	A (Category A=SBP in SHRs<20 mmHg)	–	–
CC1(c2ccc(Cl)cn2)C(=O)Nc2nc(-c3cn4ccnc4c(CCCC(F)(F)F)n3)ncc21 (stereo not drawn) [Example 59A, 5-(5-chloropyridin-2-yl)-5-methyl-2-(8-(4,4,4-trifluorobutyl)imidazo[1,2-a]pyrazin-6-yl)-5H-pyrrolo[2,3-d]pyrimidin-6(7H)-one]	–	91%	68 nM	B (Category B=SBP in SHRs 20-40 mmHg)	–	–
CC1(c2ccc(F)cn2)C(=O)Nc2nc(-c3cn4ccnc4c(CCC(F)(F)C(F)(F)F)n3)ncc21 (stereo not drawn) [Example 62B, 5-(5-fluoropyridin-2-yl)-5-methyl-2-(8-(3,3,4,4,4-pentafluorobutyl)imidazo[1,2-a]pyrazin-6-yl)-5H-pyrrolo[2,3-d]pyrimidin-6(7H)-one]	–	98%	104 nM	B (Category B=SBP in SHRs 20-40 mmHg)	–	–
CC1(c2ccc(F)cc2)C(=O)Nc2nc(-c3cn4ccnc4c(CCCC(F)(F)F)n3)ncc21 (stereo not drawn) [Example 64A, 5-(4-fluorophenyl)-5-methyl-2-(8-(4,4,4-trifluorobutyl)imidazo[1,2-a]pyrazin-6-yl)-5H-pyrrolo[2,3-d]pyrimidin-6(7H)-one]	–	141%	35 nM	–	–	B (Category B=SBP in SHRs 20-40 mmHg)
CC1(c2ccc(F)cn2)C(=O)Nc2nc(-c3cn4ccnc4c(CC4CCC4)n3)ncc21 (stereo not drawn) [Example 65B, 2-(8-(cyclobutylmethyl)imidazo[1,2-a]pyrazin-6-yl)-5-(5-fluoropyridin-2-yl)-5-methyl-5H-pyrrolo[2,3-d]pyrimidin-6(7H)-one]	–	102%	71 nM	–	–	B (Category B=SBP in SHRs 20-40 mmHg)
CC1(c2ccc(F)cn2)C(=O)Nc2nc(-c3cn4ccnc4c(CCCC(F)(F)F)n3)ncc21 (stereo not drawn) [Example 66B, 5-(5-fluoropyridin-2-yl)-5-methyl-2-(8-(4,4,4-trifluorobutyl)imidazo[1,2-a]pyrazin-6-yl)-5H-pyrrolo[2,3-d]pyrimidin-6(7H)-one]	–	125%	217 nM	A (Category A=SBP in SHRs<20 mmHg)	–	–
CCCCc1nc(-c2ncc3c(n2)NC(=O)C3(C)c2ccc(F)cc2)cn2ccnc12 (stereo not drawn) [Example 78A, 2-(8-Butylimidazo[1,2-a]pyrazin-6-yl)-5-(4-fluorophenyl)-5-methyl-5H-pyrrolo[2,3-d]pyrimidin-6(7H)-one]	–	121%	50 nM	C (Category C=SBP in SHRs>40 mmHg)	–	–
CC1(c2ccc(F)cc2)C(=O)Nc2nc(-c3cn4ccnc4c(Cc4ccc(F)cc4)n3)nc(O)c21 (stereo not drawn) [Example 81A, 2-(8-(4-fluorobenzyl)imidazo[1,2-a]pyrazin-6-yl)-5-(4-fluorophenyl)-4-hydroxy-5-methyl-5H-pyrrolo[2,3-d]pyrimidin-6(7H)-one]	–	104%	144 nM	B (Category B=SBP in SHRs 20-40 mmHg)	–	–
CCCCc1nc(-c2ncc3c(n2)NC(=O)C3(C)c2ccc(F)cn2)cn2ccnc12 (stereo not drawn) [Example 82B, 2-(8-butylimidazo[1,2-a]pyrazin-6-yl)-5-(5-fluoropyridin-2-yl)-5-methyl-5H-pyrrolo[2,3-d]pyrimidin-6(7H)-one]	–	63%	37 nM	C (Category C=SBP in SHRs>40 mmHg)	–	–
CC1(c2ccc(F)cc2)C(=O)Nc2nc(-c3cn4ccnc4c(CCC(F)(F)C(F)(F)F)n3)nc(C(N)=O)c21 (stereo not drawn) [Example 86A, 5-(4-Fluorophenyl)-5-methyl-6-oxo-2-(8-(3,3,4,4,4-pentafluorobutyl)imidazo[1,2-a]pyrazin-6-yl)-6,7-dihydro-5H-pyrrolo[2,3-d]pyrimidine-4-carboxamide]	–	109%	57 nM	B (Category B=SBP in SHRs 20-40 mmHg)	–	–
Cc1cn2cc(-c3ncc4c(n3)NC(=O)C4(C)c3ccc(F)cn3)nc(CCCC(F)(F)F)c2n1 (stereo not drawn) [Example 90B, 5-(5-Fluoropyridin-2-yl)-5-methyl-2-(2-methyl-8-(4,4,4-trifluorobutyl)imidazo[1,2-a]pyrazin-6-yl)-5H-pyrrolo[2,3-d]pyrimidin-6(7H)-one]	–	191%	589 nM	–	–	B (Category B=SBP in SHRs 20-40 mmHg)
CC1(c2ccc(F)cc2)C(=O)Nc2nc(-c3cn4ccnc4c(OCCC4CC4)n3)nc(O)c21 (stereo not drawn) [Example 93A, 2-(8-(2-Cyclopropylethoxy)imidazo[1,2-a]pyrazin-6-yl)-5-(4-fluorophenyl)-4-hydroxy-5-methyl-5H-pyrrolo[2,3-d]pyrimidin-6(7H)-one]	–	86%	163 nM	A (Category A=SBP in SHRs<20 mmHg)	–	–
